In paper PMC9101087, “A Sensitive LC-MS/MS Method for the Simultaneous Determination of Two Thia-Analogous Indirubin N-Glycosides and Indirubin-3′-Monoxime in Plasma and Cell Culture Medium” (Molecules, 2022):
Blank lines part the entries; values can stand above or below the molecule they belong to.

How the values were obtained:
[1] = Storage stability in human plasma, LC-MS/MS after plasma precipitation; type: in vitro ADME; conditions: long-term freezing
[2] = Storage stability in human plasma, LC-MS/MS after plasma extraction; type: in vitro ADME; conditions: for Stability 4 °C / Stability AS (autosampler) / Stability −20 °C / Stability BT (benchtop): 24 h; for Stability FT (freeze-thaw): freeze-thaw cycles; for Stability −80 °C 90 d: long-term freezing; for Stability BT (benchtop): room temperature
Protocol: (§1) To assess stability, low and high concentrations of all analytes were subjected to different storage conditions. […] For determination of long-term stability, samples were stored in either plasma or DMEM at –80 °C for 90 and 91 days, respectively. To measure short-term stability, samples were stored at room temperature, in an autosampler, at 4 °C, and at –20 °C for 24 h. In addition, freeze-thaw cycles were performed according to FDA guidance for the standard solutions. For comparison, at least three freshly prepared samples were prepared for each concentration level. With the exception of autosampler stability, the internal standard was always added to all samples before sample processing was started.
(§2) Liquid-liquid extraction was performed identically for plasma and DMEM samples. After addition of the 1.0 µM internal standard, 50 µL of 0.8 M alkaline carbonate buffer was added. The extraction was performed once with 890 µL ethyl acetate. Tubes were then shaken for 10 min at 1400 rpm using a Thermomixer 5436 (Eppendorf AG, Hamburg, Germany) followed by centrifugation for 5 min at 14,000 rpm using a Centrifuge 5415 C (Eppendorf AG, Hamburg, Germany). Subsequently, 850 µL of the supernatant was transferred to a new tube and evaporated to dryness for 35 min at 35 °C (8 min heating time) using a SpeedVac SPD130DLX (Thermo Fisher Scientific, Asheville, NC, USA). Reconstitution was performed with 200 µL of a acetonitrile/water/H2SO4 [3/0.5/0.5] mixture, shaken at 1400 rpm for 5 min, and centrifuged again at 14,000 rpm for 5 min. Finally, 155 µL of the sample was transferred to an LC vial and analyzed.
(§3) To assess stability, low and high concentrations of all analytes were exposed to different storage conditions. To determine long-term stability, samples were stored in either plasma or DMEM at −80 °C for 90 and 91 days, respectively. To determine short-term stability, samples were stored for 24 h on the bench at room temperature, in the autosampler, at 4 °C, and at −20 °C. In addition, freeze-thaw cycles were performed for the standard solutions according to FDA guidance. At least three freshly prepared samples per concentration level were prepared for comparison. With the exception of the stability test in the autosampler, the internal standard was always added to all samples before sample processing was started. However, to avoid concentration fluctuations due to possible degradation of the analytes, stock solutions were prepared twice a week and stored at −20 °C. Each storage condition was examined in the dark. For all conditions studied, n = 3–6 replicates were prepared.

[3] = Storage stability in DMEM, LC-MS/MS after DMEM extraction; type: physicochemical; conditions: for Stability 4 °C / Stability AS (autosampler) / Stability −20 °C / Stability BT (benchtop): 24 h; for Stability FT (freeze-thaw): freeze-thaw cycles; for Stability −80 °C 91 d: long-term freezing; for Stability BT (benchtop): room temperature
Protocol: as §1
Regarding the medium, validation procedures were performed with high-glucose DMEM supplemented with 100 U/mL penicillin and 100 μg/mL streptomycin, but not with FBS. With the exception of selectivity, where both media (GlutaMAX™-I or UltraGlutamine^TM I supplement) were tested, only Gibco™ DMEM with GlutaMAX™-I was used for all other analytical procedures.
as §2, §3

[4] = Storage stability in human plasma, LC-MS/MS after plasma precipitation; type: in vitro ADME; conditions: for Stability 4 °C / Stability AS (autosampler) / Stability −20 °C / Stability BT (benchtop): 24 h; for Stability FT (freeze-thaw): freeze-thaw cycles; for Stability BT (benchtop): room temperature
Protocol: as §1
After mixing the 1.5 µM internal standard and the plasma sample, protein precipitation was commenced. Next, 190 µL of acetonitrile and 50 µL of 0.5 M sulfuric acid buffer were added. The tubes were then shaken at 1400 rpm for 5 min followed by centrifugation at 14,000 rpm for 5 min. Subsequently, 195 µL of the supernatant was transferred to an LC tube and analyzed.
as §3

U138MG (glioblastoma) = experiment: WST-1 cell viability assay, 48-h incubation; type: cell-based, human; conditions: WST-1, 48 h
Protocol: (§4) To test the biological activity of the thia-analogous indirubin N-glycosides that are the focus of the present work, the effects of KD87 and KD85 and their non-glycosylated parent compound KD88 on the viability of various tumor cell lines were initially investigated. The corresponding analyses were performed using the cell lines A375 (melanoma), A431 (skin squamous cell carcinoma), A549 (non-small cell lung carcinoma), U251MG (glioblastoma), and U138MG (glioblastoma).
(§5) Figure 2 Effect of increasing concentrations of KD87 (A), KD85 (B), and KD88 (C) on viability of various cancer cells. A375 (melanoma; black columns), A431 (skin squamous cell carcinoma; dark grey columns), A549 (non-small cell lung carcinoma; grey columns), U251MG (glioblastoma; light grey columns), or U138MG (glioblastoma; white columns) were incubated for 48 h with the appropriate compounds or vehicle followed by determination of cell viability by WST-1 assay. Percent control represents comparison with vehicle-treated cells (100%) in the absence of test substance. Values are mean ± standard error of the mean (SEM) of n = 15 in all panels, except n = 14 for A375 and A431 cells in panel B and n = 14–15 for A375 cells in panel C, from four (A375, A431) or five (A549, U251MG, U138MG) independent experiments. * p ≤ 0.05, ** p ≤ 0.01, *** p ≤ 0.001, **** p ≤ 0.0001 vs. vehicle control; one-way ANOVA with Dunnett’s post hoc test.
(§6) The human melanoma cell line A375 (#300110; RRID:CVCL_0132) as well as the human skin epidermoid carcinoma cell line A431 (#300112; RRID:CVCL_0037) were purchased from CLS Cell Lines Service GmbH (Eppelheim, Germany). The human glioblastoma cell line U251MG (#09063001; RRID:CVCL_0021) was from Sigma-Aldrich Corporation. The human glioblastoma cell line U138MG (#ACC 291; RRID: CVCL_0020) and the human lung carcinoma cell line A549 (#ACC 107, RRID:CVCL_0023) were purchased from DSMZ (Deutsche Sammlung von Mikroorganismen und Zellkulturen GmbH, Braunschweig, Germany).
(§7) Cells were cultured in high-glucose DMEM (with GlutaMAX™-I: A375, A431; with UltraGlutamine^TM I: A549, U251MG, U138MG) supplemented with 10% heat-inactivated FBS, 100 U/mL penicillin, and 100 μg/mL streptomycin and grown in a humidified incubator at 37 °C and 5% CO2. For viability analyses, cells were seeded in 96-well plates at a density of 5000 cells per well in DMEM containing 10% heat-inactivated FBS and cultured for 24 h. All cell experiments with the specific substances were performed in serum-free DMEM supplemented with 100 U/mL penicillin and 100 μg/mL streptomycin, applied after washing the cells with DPBS. The test substances were dissolved in DMSO. The final concentration of DMSO in the incubation media of test substance- and vehicle-treated cells was 1% (v/v).
(§8) After completion of the 48-h incubation, WST-1 reagent (Sigma, Taufkirchen, Germany) was added to the cells to achieve a final dilution of 1:10, and the cells were incubated for an additional 20 min before absorbance was measured at 450 nm, reference wavelength […], using a microplate reader.

A375 (melanoma) = experiment: WST-1 cell viability assay, 48-h incubation; type: cell-based, human; conditions: A375, WST-1, 48 h
Protocol: as §4, §5, §6, §7, §8

[5] = tested on: A549 (non-small cell lung carcinoma); experiment: WST-1 cell viability assay, 48-h incubation; type: cell-based, human; conditions: A549, WST-1, 48 h
Protocol: as §4, §5, §6, §7, §8

U251MG (glioblastoma) = experiment: WST-1 cell viability assay, 48-h incubation; type: cell-based, human; conditions: WST-1, 48 h
Protocol: as §4, §5, §6, §7, §8

[6] = tested on: A431 (skin squamous cell carcinoma); experiment: WST-1 cell viability assay, 48-h incubation; type: cell-based, human; conditions: A431, WST-1, 48 h
Protocol: as §4, §5, §6, §7, §8

leukemia cells (HL60) = conditions: sulforhodamine B assay, incubation 24 h longer than the 48-h assay; cited from earlier work
[7] = tested on: human breast cancer cells (MCF-7); conditions: sulforhodamine B assay, incubation 24 h longer than the 48-h assay; cited from earlier work
[8] = tested on: human fibrosarcoma cell line HT1080; conditions: sulforhodamine B assay, incubation 24 h longer than the 48-h assay; cited from earlier work
[9] = tested on: human gastric (SNU-638) cancer cells; conditions: sulforhodamine B assay, incubation 24 h longer than the 48-h assay; cited from earlier work
[10] = tested on: human colon (Col2) cancer cells; conditions: sulforhodamine B assay, incubation 24 h longer than the 48-h assay; cited from earlier work
A549 lung cancer cells = conditions: sulforhodamine B assay, incubation 24 h longer than the 48-h assay; cited from earlier work

Stability −80 °C 91 d ([1]; 2.0 nM): 101.0 ± 9.0%
Stability −80 °C 91 d ([1]; 167 nM): 103.0 ± 3.6%
Stability 4 °C ([2]; 3.0 nM): 95.9 ± 8.7%
Stability AS (autosampler) ([2]; 3.0 nM): 68.0 ± 1.5%
Stability −20 °C ([2]; 3.0 nM): 93.8 ± 1.9%
Stability FT (freeze-thaw) ([2]; 3.0 nM): 94.9 ± 4.0%
Stability −80 °C 90 d ([2]; 3.0 nM): 96.2 ± 7.2%
Stability BT (benchtop) ([2]; 3.0 nM): 102.2 ± 1.8%
Stability 4 °C ([2]; 250 nM): 94.6 ± 2.2%
Stability AS (autosampler) ([2]; 250 nM): 58.5 ± 1.3%
Stability −20 °C ([2]; 250 nM): 96.5 ± 1.6%
Stability FT (freeze-thaw) ([2]; 250 nM): 99.7 ± 1.6%
Stability −80 °C 90 d ([2]; 250 nM): 100.6 ± 3.0%
Stability BT (benchtop) ([2]; 250 nM): 96.3 ± 7.3%
Stability 4 °C ([3]; 3.0 nM): 113.8 ± 6.6%
Stability AS (autosampler) ([3]; 3.0 nM): 65.0 ± 1.3%
Stability −20 °C ([3]; 3.0 nM): 92.0 ± 1.1%
Stability FT (freeze-thaw) ([3]; 3.0 nM): 100.0 ± 5.7%
Stability −80 °C 91 d ([3]; 3.0 nM): 90.6 ± 4.5%
Stability BT (benchtop) ([3]; 3.0 nM): 66.8 ± 2.7%
Stability 4 °C ([3]; 40 nM): 100.4 ± 1.3%
Stability AS (autosampler) ([3]; 40 nM): 63.6 ± 0.3%
Stability −20 °C ([3]; 40 nM): 93.1 ± 2.5%
Stability FT (freeze-thaw) ([3]; 40 nM): 99.5 ± 3.2%
Stability −80 °C 91 d ([3]; 40 nM): 99.0 ± 2.7%
Stability BT (benchtop) ([3]; 40 nM): 59.4 ± 2.4%
Stability 4 °C ([4]; 2.0 nM): 89.7 ± 1.5%
Stability AS (autosampler) ([4]; 2.0 nM): 124.3 ± 9.5%
Stability −20 °C ([4]; 2.0 nM): 95.2 ± 3.7%
Stability FT (freeze-thaw) ([4]; 2.0 nM): 104.1 ± 5.5%
Stability BT (benchtop) ([4]; 2.0 nM): 100.1 ± 9.0%
Stability 4 °C ([4]; 167 nM): 91.5 ± 3.3%
Stability AS (autosampler) ([4]; 167 nM): 112.0 ± 6.8%
Stability −20 °C ([4]; 167 nM): 93.7 ± 7.7%
Stability FT (freeze-thaw) ([4]; 167 nM): 99.7 ± 7.4%
Stability BT (benchtop) ([4]; 167 nM): 98.6 ± 4.3%
Compound: O=C1Nc2ccccc2/C1=C1/Nc2ccccc2/C1=N\O [I3M, indirubin-3′-monoxime]

Compound: O=C1Nc2ccccc2/C1=C1/Sc2ccccc2C1=O [KD88, 3-[3′-oxo-benzo[b]thiophene-2′-(Z)-ylidene]-oxindole]
cytotoxic potential (in words) (U138MG (glioblastoma)): no cytotoxic potential
cytotoxic potential (in words) (A375 (melanoma)): no cytotoxic potential
cytotoxic potential (in words) [5]: no cytotoxic potential
cytotoxic potential (in words) (U251MG (glioblastoma)): no cytotoxic potential
cytotoxic potential (in words) [6]: no cytotoxic potential

Compound: O=C1Nc2ccccc2/C1=C1/Nc2ccccc2C1=O [indirubin]
IC50 (leukemia cells (HL60)): > 100 µM
IC50 [7]: > 100 µM
IC50 [8]: 42 µM
IC50 [9]: > 100 µM
IC50 [10]: > 100 µM
IC50 (A549 lung cancer cells): 31 µM
